Data on 10 compounds can be found in PubChem BioAssay (NCI).

Molecules are shown by their SMILES. “And” between values parts separate entries of the source, which are not always exact repeats. Equal values may be shown once.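 Following 48 hours of exposure in 96-well plates, responses at five concentrations were used to interpolate endpoints linearly. GI50 = concentration required for 50% inhibition of growth. Definition used: TGI = concentration required for complete inhibition of growth.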 Some results are limits rather than exact numbers.

Test in all cases: NCI anticancer screen, dose series, 48 h
In test [1] the test system is M14 melanoma.
Test [2] relates to OVCAR-3 ovarian.
Test [3] has as its system HCC-2998 colon.
Test [4] concerns HT29 colon.
Test [5] deals with K-562 leukemia.
The subject of test [6] is OVCAR-5 ovarian.
Test [7] relates to TK-10 renal.
In test [8] the test system is SNB-75 CNS.
Test [9] concerns A549 NSCLC.
Test [10] relates to NCI-H226 lung.

Take `C=C(Cl)C(Br)(CCl)CCC(Br)C(C)(C)Cl` (centres undefined): the GI50 is 2.01 µM in [1], 2.01 µM in test [2], 7.84 µM in test [5] and 1.91 µM in [10]. Further, the TGI in test [1] is 7.74 µM and 4.9 µM; in [2], 3.73 µM; in [3], 30.5 µM; in test [4], 4.23 µM; in test [5] it was 9.43 µM and 40.4 µM; in test [6], 19.4 µM. For the same compound, the TGI in [7] stood at 24.6 µM; in [8] it was 11 µM; in test [9], 38.1 µM; in [10] it was 5.22 µM.

In the case of `COc1ccc(CC2NCCc3c2[nH]c2ccccc32)cc1` (centres undefined), the TGI in test [1] is over 100 µM; in [2] it was over 100 µM; in [3], 48.3 µM; in test [4], over 100 µM; in test [5], over 100 µM; in test [6], over 100 µM. Further, the TGI in test [7], in test [8], in [9] and in [10] was over 100 µM throughout.

Consider `CN(C)CC1CCCC/C1=N/OC(=O)c1ccc(Cl)cc1` (centres undefined), for which the TGI in [1], in [2], in test [3], in test [4], in test [5] and in test [6] was over 100 µM throughout. Moreover, the TGI in test [7], in test [8], in test [9] and in [10] was over 100 µM throughout.

Consider `N#CC(C(=O)C(=O)C(C#N)c1ccc(Br)cc1)c1ccc(Br)cc1` (centres undefined), for which the TGI in test [1] was 31.6 µM; in test [2], 21.4 µM; in test [3], 24.5 µM; in test [4], 22.8 µM; in [5] it was over 100 µM; in test [6] it was 32.1 µM. Moreover, the TGI in [7] is 30.6 µM; in [8], 17.7 µM; in test [9] it was 46.5 µM; in test [10], 34.8 µM.

For the compound `C1CN2CCN3CCN4CCN1[P+]243`, the TGI in test [1], in test [2], in test [3], in test [4], in test [5] and in test [6] was over 100 µM each time. For the same compound, the TGI in [7], in test [8], in [9] and in test [10] was over 100 µM in each case.

On to `Cn1cc(C2=C(c3cn(CCCCO)c4ccccc34)C(=O)NC2=O)c2ccccc21`, for which the GI50 was 16.6 µM in [1]; 8.09 µM in test [2]; 16.3 µM in test [3]; 8.3 µM in [4]; 9.75 µM in [5]; 13.5 µM in test [6]. Further, the GI50 in test [7] was 10.1 µM; in test [8] it was 2.31 µM; in test [9] it was 7.97 µM; in [10] it was 7.55 µM. For the same compound, the TGI in [1], in test [2], in test [3], in test [4], in [5] and in test [6] was over 25 µM in each case. Also, the TGI in test [7], in test [8], in test [9] and in [10] was over 25 µM in each case.

Turning to `Cc1ccc(NC(=O)CC2CC2)cc1-c1ccc(C(=O)NCC2CC2)cc1`, the GI50 is over 25 µM in test [1]; over 25 µM in test [2]; over 25 µM in test [3]; over 25 µM in [4]; over 14.1 µM in test [5]; over 25 µM in test [6]. In addition, the GI50 in test [7], in test [8], in test [9] and in test [10] was over 25 µM each time. Also, the TGI in [1], in test [2], in [3], in test [4], in test [5] and in test [6] was over 25 µM in each case. The TGI in [7], in test [8], in test [9] and in test [10] was over 25 µM in each case.

In the case of `CCOC(=O)Nc1ccc(C)c(NC(=O)OCC)c1`, the TGI in test [1], in test [2], in test [3], in test [4], in test [5] and in test [6] was over 100 µM each time. In addition, the TGI in [7], in [8], in test [9] and in test [10] was over 100 µM each time.

In the case of `COc1ccc(/C=C2/N=C(c3ccccc3)N(c3c(C)n(C)n(-c4ccccc4)c3=O)C2=O)cc1OC`, the GI50 in [1], in [2], in [3], in test [4], in test [5] and in test [6] was over 100 µM throughout. For the same compound, the GI50 in [7] is over 100 µM; in test [8], 86.4 µM; in test [9] it was over 100 µM; in test [10], over 100 µM. In addition, the TGI in [1], in test [2], in test [3], in test [4], in test [5] and in test [6] was over 100 µM each time. For the same compound, the TGI in test [7], in test [8], in [9] and in test [10] was over 100 µM throughout.

On to `N#C/C1=C(\N)CCSSSC1`, for which the TGI in test [1] was 95.9 µM; in test [2], over 100 µM; in test [3] it was over 100 µM; in test [4] it was over 100 µM; in [5] it was over 100 µM; in [6] it was over 100 µM. Besides, the TGI was over 100 µM in test [7], over 100 µM in [8], over 100 µM in test [9] and 65.8 µM in test [10].
